Measurements published in PubChem BioAssay AID1963981 (Molecular Pharmacology Branch, DTP, NCI, 2024).
Values belong to the compound of their own block, whether it stands above or below them.

Tested on: 354836-022-R-J1-PDC multicell spheroid viability
Assay: Anticancer human tumor 354836-022-R-J1-PDC patient-derived head and neck squamous cell carcinoma cell line growth inhibition [PI3K]
Conditions: for IC50: curve of first compound; for viability, T/C: stronger effect = lower value
Description: Combinatorial screen of targeted agents with the PI3K inhibitors inavolisib, alpelisib, duvelisib, and copanlisib in multi-cell type tumor spheroids
A high-throughput screen of multi-cell type tumor spheroids was designed to identify active combinations of targeted small molecules and PI3K pathway inhibitors. Complex spheroids include a stromal component modeled by human endothelial cells (HUVEC) and fibroblasts modeled by human mesenchymal stem cells (MSCs). The concentration ranges selected for each drug and investigational agent were based upon clinically achievable concentrations if the clinical Cmax of the agent was known.
Compounds. The drugs and investigational agents: inavolisib (NSC800729), alpelisib (NSC765974), duvelisib (NSC772469), copanlisib (NSC816437), ipatasertib (NSC767898), afuresertib (NSC778305), talazoparib (NSC767125), sapanisertib (NSC764658), selumetinib (NSC741078), tovorafenib (DAY101, NSC766906), vemurafenib (NSC761431), ravoxertinib (NSC781343), sotorasib (NSC818433), MRTX1133 (NSC 836407), abemaciclib (NSC 768073), palbociclib (NSC758247), venetoclax (NSC 766270), SY5609 (NSC837396), enzalutamide (NSC755605), and darolutamide (NSC825331), were obtained from the National Cancer Institute (NCI) Developmental Therapeutics Program Chemical Repository. The FDA-approved anticancer drug set is available from the NCI Developmental Therapeutics Program. […] The stock solutions were prepared in dimethyl sulfoxide (DMSO, Sigma-Aldrich, St. Louis, MO, cat. D2650) at 800-fold the tested concentration and stored at -70 degrees C prior to their use. All drugs and investigational agents were tested over a range starting from a high concentration at or near the clinical Cmax and decreasing in half-log increments. If the clinical Cmax for an agent had not been determined, the highest concentration tested was 10 microM.
Cell Culture. All cells were maintained in an incubator at 37 degrees C and 5% CO2 with 95% humidity. The PDC lines were cultured according to standard operating procedures established by the NCI PDMR (https://pdmr.cancer.gov/sops/default.htm). All PDCs were thawed and cultured in Matrigel-coated flasks prepared with a working solution of 1X Ham's F-12 nutrient mix, without supplementation (Invitrogen, Waltham, MA, cat. 11765054), 100 U/mL penicillin-streptomycin (Invitrogen, cat. 15140122), and 2.5% Matrigel (Corning Inc., Corning, NY, cat. 354248) for the first three passages. The 354836-022-R-J1-PDC, 475296-252-R-J1-PDC, and 997726-040-R-J2-PDC lines were cultured in 6A media, which includes advanced DMEM/F-12 (Thermo Fisher Scientific, cat. 12634028), 10 mM HEPES (Thermo Fisher Scientific, cat. 15630080), 1X GlutaMAX supplement (Thermo Fisher Scientific, cat. 35050061), 0.1 mg/mL primocin (InvivoGen, San Diego, CA, cat. ant-pm-2), 10% defined fetal bovine serum, heat inactivated (HyClone Laboratories Inc., Logan, UT, cat. SH30070.03HI), 50% L-WRN conditioned media (ATCC, cat. CRL-3276), 1.25 mM N-Acetyl-L-cysteine (Sigma-Aldrich, cat. A9165), 10 mM nicotinamide (Sigma-Aldrich, cat. N0636), 1X B-27 supplement (Thermo Fisher Scientific, cat. 17504044), 1X N-2 supplement (Thermo Fisher Scientific, cat. 17502048), and 10 microM Y-27632 dihydrochloride (Tocris Bioscience, Bristol, United Kingdom, cat. 1254). The 624824-186-R-J2-PDC line was cultured in 6C/Colon 1B media, which includes all 6A media components plus 50 ng/mL human EGF recombinant protein (Thermo Fisher Scientific, cat. PHG0311). […]

[1] = second compound 0.00316 µM, first compound 0.000316 µM
[2] = second compound 0.00316 µM, first compound 0.001 µM
[3] = second compound 0.00316 µM, first compound 0.00316 µM
[4] = second compound 0.00316 µM, first compound 0.01 µM
[5] = second compound 0.00316 µM, first compound 0.0316 µM
[6] = second compound 0.00316 µM, first compound 0.1 µM
[7] = second compound 0.01 µM, first compound 0.000316 µM
[8] = second compound 0.01 µM, first compound 0.001 µM
[9] = second compound 0.01 µM, first compound 0.00316 µM
[10] = second compound 0.01 µM, first compound 0.01 µM
[11] = second compound 0.01 µM, first compound 0.0316 µM
[12] = second compound 0.01 µM, first compound 0.1 µM
[13] = second compound 0.0316 µM, first compound 0.000316 µM
[14] = second compound 0.0316 µM, first compound 0.001 µM
[15] = second compound 0.0316 µM, first compound 0.00316 µM
[16] = second compound 0.0316 µM, first compound 0.01 µM
[17] = second compound 0.0316 µM, first compound 0.0316 µM
[18] = second compound 0.0316 µM, first compound 0.1 µM
[19] = second compound 0.1 µM, first compound 0.000316 µM
[20] = second compound 0.1 µM, first compound 0.001 µM
[21] = second compound 0.1 µM, first compound 0.00316 µM
[22] = second compound 0.1 µM, first compound 0.01 µM
[23] = second compound 0.1 µM, first compound 0.0316 µM
[24] = second compound 0.1 µM, first compound 0.1 µM
[25] = second compound 0.316 µM, first compound 0.000316 µM
[26] = second compound 0.316 µM, first compound 0.001 µM
[27] = second compound 0.316 µM, first compound 0.00316 µM
[28] = second compound 0.316 µM, first compound 0.01 µM
[29] = second compound 0.316 µM, first compound 0.0316 µM
[30] = second compound 0.316 µM, first compound 0.1 µM
[31] = second compound 1 µM, first compound 0.000316 µM
[32] = second compound 1 µM, first compound 0.001 µM
[33] = second compound 1 µM, first compound 0.00316 µM
[34] = second compound 1 µM, first compound 0.01 µM
[35] = second compound 1 µM, first compound 0.0316 µM
[36] = second compound 1 µM, first compound 0.1 µM
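Further: spheroids exposed to agents for seven days before the viability read.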

- IC50 (second compound 0.00316 µM): 13.9 nM
- IC50 (second compound 0.01 µM): 11.5 nM
- IC50 (second compound 0.0316 µM): 7.62 nM
- IC50 (second compound 0.1 µM): 10.6 nM
- IC50 (second compound 0.316 µM): 5.01 nM
- IC50 (second compound 1 µM): 1.86 nM
SMILES: CC(C)n1nc(-c2ccc3oc(N)nc3c2)c2c(N)ncnc21 + CC(Nc1ccc2c(c1)OCCn1cc(N3C(=O)OCC3C(F)F)nc1-2)C(N)=O
- viability, T/C [1]: 99.9%
- viability, T/C [2]: 77%
- viability, T/C [3]: 80.6%
- viability, T/C [4]: 53.9%
- viability, T/C [5]: 35.2%
- viability, T/C [6]: 12.7%
- viability, T/C [7]: 104%
- viability, T/C [8]: 76%
- viability, T/C [9]: 74.5%
- viability, T/C [10]: 51.3%
- viability, T/C [11]: 37.8%
- viability, T/C [12]: 13.1%
- viability, T/C [13]: 90.2%
- viability, T/C [14]: 78.8%
- viability, T/C [15]: 59.2%
- viability, T/C [16]: 50.5%
- viability, T/C [17]: 25.9%
- viability, T/C [18]: 9.5%
- viability, T/C [19]: 74.1%
- viability, T/C [20]: 81.6%
- viability, T/C [21]: 71.3%
- viability, T/C [22]: 49.4%
- viability, T/C [23]: 25.4%
- viability, T/C [24]: 6.95%
- viability, T/C [25]: 60.3%
- viability, T/C [26]: 75.7%
- viability, T/C [27]: 54%
- viability, T/C [28]: 37.7%
- viability, T/C [29]: 22.2%
- viability, T/C [30]: 6.64%
- viability, T/C [31]: 57.5%
- viability, T/C [32]: 54.8%
- viability, T/C [33]: 45.9%
- viability, T/C [34]: 34.8%
- viability, T/C [35]: 19.4%
- viability, T/C [36]: 5.83%

- IC50 (second compound 0.00316 µM): > 100 nM
- IC50 (second compound 0.01 µM): > 100 nM
- IC50 (second compound 0.0316 µM): > 100 nM
- IC50 (second compound 0.1 µM): > 100 nM
- IC50 (second compound 0.316 µM): < 0.316 nM
- IC50 (second compound 1 µM): < 0.316 nM
SMILES: CC(=O)c1c(C)c2cnc(Nc3ccc(N4CCNCC4)cn3)nc2n(C2CCCC2)c1=O + COc1c(OCCCN2CCOCC2)ccc2c3n(c(=NC(=O)c4cnc(N)nc4)nc12)CCN3
- viability, T/C [1]: 115%
- viability, T/C [2]: 116%
- viability, T/C [3]: 119%
- viability, T/C [4]: 113%
- viability, T/C [5]: 99.9%
- viability, T/C [6]: 107%
- viability, T/C [7]: 107%
- viability, T/C [8]: 121%
- viability, T/C [9]: 93.7%
- viability, T/C [10]: 99.1%
- viability, T/C [11]: 85.1%
- viability, T/C [12]: 105%
- viability, T/C [13]: 78.7%
- viability, T/C [14]: 92.1%
- viability, T/C [15]: 81.3%
- viability, T/C [16]: 82.2%
- viability, T/C [17]: 95.9%
- viability, T/C [18]: 83.3%
- viability, T/C [19]: 48.8%
- viability, T/C [20]: 54.3%
- viability, T/C [21]: 57.6%
- viability, T/C [22]: 61.3%
- viability, T/C [23]: 55.7%
- viability, T/C [24]: 59.6%
- viability, T/C [25]: 15.9%
- viability, T/C [26]: 16.5%
- viability, T/C [27]: 12.5%
- viability, T/C [28]: 14.6%
- viability, T/C [29]: 15.2%
- viability, T/C [30]: 14.1%
- viability, T/C [31]: 2.1%
- viability, T/C [32]: 1.43%
- viability, T/C [33]: 1.73%
- viability, T/C [34]: 2.18%
- viability, T/C [35]: 2.06%
- viability, T/C [36]: 1.39%

- IC50 (second compound 0.00316 µM): > 100 nM
- IC50 (second compound 0.01 µM): > 100 nM
- IC50 (second compound 0.0316 µM): > 100 nM
- IC50 (second compound 0.1 µM): 14.9 nM
- IC50 (second compound 0.316 µM): < 0.316 nM
- IC50 (second compound 1 µM): < 0.316 nM
SMILES: Cn1ncnc1[C@H]1c2n[nH]c(=O)c3cc(F)cc(c23)N[C@@H]1c1ccc(F)cc1 + COc1c(OCCCN2CCOCC2)ccc2c3n(c(=NC(=O)c4cnc(N)nc4)nc12)CCN3
- viability, T/C [1]: 98.6%
- viability, T/C [2]: 102%
- viability, T/C [3]: 95.6%
- viability, T/C [4]: 101%
- viability, T/C [5]: 98.2%
- viability, T/C [6]: 88.5%
- viability, T/C [7]: 93.8%
- viability, T/C [8]: 103%
- viability, T/C [9]: 90.5%
- viability, T/C [10]: 93.1%
- viability, T/C [11]: 95.3%
- viability, T/C [12]: 76.2%
- viability, T/C [13]: 76%
- viability, T/C [14]: 77.7%
- viability, T/C [15]: 88%
- viability, T/C [16]: 83.4%
- viability, T/C [17]: 83.1%
- viability, T/C [18]: 69.8%
- viability, T/C [19]: 50%
- viability, T/C [20]: 50.7%
- viability, T/C [21]: 52%
- viability, T/C [22]: 57.5%
- viability, T/C [23]: 57.8%
- viability, T/C [24]: 37%
- viability, T/C [25]: 15.2%
- viability, T/C [26]: 16.3%
- viability, T/C [27]: 14.5%
- viability, T/C [28]: 13.9%
- viability, T/C [29]: 13.5%
- viability, T/C [30]: 7.08%
- viability, T/C [31]: 2.45%
- viability, T/C [32]: 1.53%
- viability, T/C [33]: 1.71%
- viability, T/C [34]: 2.18%
- viability, T/C [35]: 2.36%
- viability, T/C [36]: 1.28%
